Measurements from the supplement of paper PMC11061612.

Columns and labels:
Test in all cases: combination Emax (second highest fraction inhibited in the dose matrix, 72 h); higher = more inhibition; extreme values may be limits of the assay
[1] = tested on: MS-1 (Small Cell Lung Carcinoma)
In short: (§1)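 Bliss excess equals the observed combination effect minus the expected value EA + EB − EA·EB, where EA and EB are the effects of each agent alone. Combination Emax is the second-highest inhibition within the matrix. Inhibition was scaled from CellTiter-Glo 2.0 luminescence, with 0 set by vehicle wells and 1 by blank wells, after 72 hours of two-drug dosing of cells plated in 1536-well plates.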

[2] = tested on: BxPC-3 (Pancreatic Carcinoma)
In short: as §1

[3] = tested on: KP-4 (Pancreatic Carcinoma)
In short: as §1

[4] = tested on: NB1 (Neuroblastoma)
In short: as §1

[5] = tested on: LCLC-103H (Non-Small Cell Lung Carcinoma)
In short: as §1

[6] = tested on: UACC-257 (Melanoma)
In short: as §1

[7] = tested on: SNU-423 (Hepatocellular Carcinoma)
In short: as §1

[8] = tested on: T47D (Breast Carcinoma)
In short: as §1

[9] = tested on: PA-TU-8988T (Pancreatic Carcinoma)
In short: as §1

[10] = tested on: SUP-M2 (T-Cell Non-Hodgkin's Lymphoma)
In short: as §1

[11] = tested on: MDA-MB-415 (Breast Carcinoma)
In short: as §1

[12] = tested on: IA-LM (Non-Small Cell Lung Carcinoma)
In short: as §1

[13] = tested on: NCI-H596 (Other Solid Carcinomas)
In short: as §1

[14] = tested on: PL4 (Pancreatic Carcinoma)
In short: as §1

[15] = tested on: SKG-IIIa (Cervical Carcinoma)
In short: as §1

[16] = tested on: GAK (Melanoma)
In short: as §1

[17] = tested on: SCC-4 (Oral Cavity Carcinoma)
In short: as §1

[18] = tested on: AM-38 (Glioblastoma)
In short: as §1

[19] = tested on: NCI-H226 (Mesothelioma)
In short: as §1

[20] = tested on: NCI-H3118 (Head and Neck Carcinoma)
In short: as §1

Row | SMILES | combination Emax [1] | combination Emax [2] | combination Emax [3] | combination Emax [4] | combination Emax [5] | combination Emax [6] | combination Emax [7] | combination Emax [8] | combination Emax [9] | combination Emax [10] | combination Emax [11] | combination Emax [12] | combination Emax [13] | combination Emax [14] | combination Emax [15] | combination Emax [16] | combination Emax [17] | combination Emax [18] | combination Emax [19] | combination Emax [20]
1 | CC1(C)CCC(CN2CCN(c3ccc(C(=O)NS(=O)(=O)c4ccc(NCC5CCOCC5)c([N+](=O)[O-])c4)c(Oc4cnc5[nH]ccc5c4)c3)CC2)=C(c2ccc(Cl)cc2)C1 [Venetoclax] + C[C@@H]1COCCN1C2=NC(=NC(=C2)C3(CC3)[S@](=N)(=O)C)C4=C5C=CNC5=NC=C4 [AZD6738] (first compound max 1 µM, 7x7, partner max 10 µM) | 0.702 | 0.389 | 0.418 | 0.789 | 0.55 | 0.169 | 0.441 | 0.35 | 0.345 | 0.979 | 0.509 | 0.435 | 0.371 | 0.709 | 0.368 | 0.528 | 0.585 | 0.732 | 0.243 | 0.568
2 | CN(CCO)CC[C@H](CSc1ccccc1)Nc1ccc(S(=O)(=O)NC(=O)c2ccc(N3CCC([C@@H](O)c4ccccc4-c4ccc(Cl)cc4)CC3)cc2)cc1S(=O)(=O)C(F)(F)F [AZD4320] + CCN(CCO)CCCOc1ccc2c(Nc3cc(CC(=O)Nc4cccc(F)c4)[nH]n3)ncnc2c1 [AZD2811] (first compound max 1 µM, 7x7, partner max 1 µM) | 0.597 | 0.236 | 0.368 | 0.684 | 0.344 | 0.161 | 0.466 | 0.335 | 0.398 | 0.979 | 0.619 | 0.505 | 0.289 | 0.544 | 0.191 | 0.257 | 0.861 | 0.932 | 0.49 | 0.333
3 | COc1nnc2ccc(N3CCC(c4ccc(OCCN5CCN(C)C(=O)[C@H]5C)cc4)CC3)nn12 [AZD5153] + C[C@@H]1COCCN1C2=NC(=NC(=C2)C3(CC3)[S@](=N)(=O)C)C4=C5C=CNC5=NC=C4 [AZD6738] (first compound max 1 µM, 7x7, partner max 10 µM) | 1 | 0.602 | 0.77 | 0.744 | 0.492 | 0.394 | 0.517 | 0.637 | 0.778 | 1 | 0.597 | 0.443 | 0.79 | 0.756 | 0.537 | 0.605 | 0.732 | 0.823 | 0.37 | 0.61
4 | COc1cccc(OCCCN)c1-c1cc(Nc2cnc(C#N)cn2)n[nH]1 [Prexasertib] + O=C(c1cc(Cc2n[nH]c(=O)c3ccccc23)ccc1F)N1CCN(C(=O)C2CC2)CC1 [Olaparib] (first compound max 1 µM, 7x7, partner max 10 µM) | 0.896 | 0.682 | 0.641 | 0.561 | 0.78 | 0.312 | 0.77 | 0.479 | 0.288 | 1 | 0.397 | 0.463 | 0.642 | 0.812 | 0.373 | 0.668 | 0.588 | 0.847 | 0.275 | 0.837
5 | COc1cc2ncnc(Nc3ccc(F)c(Cl)c3)c2cc1OCCCN1CCOCC1 [Gefitinib] + CC(C)n1c(=O)n(C)c2cnc3cc(F)c(-c4ccc(OCCCN5CCCCC5)nc4)cc3c21 [AZD1390] (first compound max 10 µM, 7x7, partner max 0.3 µM) | 0.273 | 0.285 | 0.121 | 0.0869 | 0.195 | 0.053 | 0.126 | 0.147 | 0.15 | 0.116 | 0.191 | 0.202 | 0.269 | 0.125 | 0.148 | 0.226 | 0.275 | 0.123 | 0.0952 | 0.518
6 | NC1(C(=O)N[C@@H](CCO)c2ccc(Cl)cc2)CCN(c2ncnc3[nH]ccc23)CC1 [Capivasertib] + CCN(CCO)CCCOc1ccc2c(Nc3cc(CC(=O)Nc4cccc(F)c4)[nH]n3)ncnc2c1 [AZD2811] (first compound max 10 µM, 7x7, partner max 1 µM) | 0.386 | 0.241 | 0.682 | 0.79 | 0.413 | 0.394 | 0.571 | 0.456 | 0.546 | 0.992 | 0.837 | 0.304 | 0.564 | 0.393 | 0.374 | 0.219 | 0.333 | 0.285 | 0.311 | 0.241
